The record followed here is paper PMC6044503 (ACS Omega, 2017).

Each structure is given as a SMILES string. Where a SMILES comes first, the peptide text is derived from it. [ ]: non-standard residue; d: D form. The star is where a group is joined. Phe(4-F) = N[C@@H](Cc1ccc(F)cc1)C(=O)O; 1Nal = N[C@@H](Cc1cccc2ccccc12)C(=O)O; Cyclohexanecarbonyl = O=C(C1CCCCC1)*; 1Naphthoyl = O=C(c1cccc2ccccc12)*; 2Naphthoyl = O=C(c1ccc2ccccc2c1)*; Cha = N[C@@H](CC1CCCCC1)C(=O)O; Isobutyryl = CC(C)C(=O)*; Aib = CC(C)(N)C(=O)O; Bz = O=C(c1ccccc1)*

The target in test [1] is T1, human Y2R (Homo sapiens, UniProt P49146).
T1 sequence (P49146 1-381): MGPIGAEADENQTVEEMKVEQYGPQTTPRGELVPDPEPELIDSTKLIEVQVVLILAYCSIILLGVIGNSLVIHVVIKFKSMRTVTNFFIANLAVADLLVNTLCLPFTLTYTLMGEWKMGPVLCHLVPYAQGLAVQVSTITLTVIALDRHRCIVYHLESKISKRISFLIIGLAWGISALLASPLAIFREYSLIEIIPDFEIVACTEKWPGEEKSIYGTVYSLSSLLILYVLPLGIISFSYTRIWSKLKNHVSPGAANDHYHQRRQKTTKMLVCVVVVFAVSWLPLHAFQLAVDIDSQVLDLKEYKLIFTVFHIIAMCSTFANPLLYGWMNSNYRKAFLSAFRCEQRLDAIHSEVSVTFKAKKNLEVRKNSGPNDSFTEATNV
Put plainly: biochemical. Type of test: biochemical.

Test [2] has as its target T1, human Y2R. Put plainly: biochemical. Type of test: binding.
In a further test the test system is male C57BL/6J mice. The experiment in a line: Food intake assay, bolus ip administration in lean mice. It counts as in vivo, mouse. To be noted: 3 h after administration, vs saline, mean ± SD.

On human Y2R [1], `CC(C)C[C@H](NC(=O)[C@H](CC(N)=O)NC(=O)[C@H](CC1CCCCC1)NC(=O)[C@H](CC1CCCCC1)NC(=O)[C@H](Cc1c[nH]cn1)NC(=O)[C@H](CCCNC(=N)N)NC(=O)c1ccc2ccccc2c1)C(=O)NC(C)(C)C(=O)N[C@H](C(=O)N[C@@H](CCCNC(=N)N)C(=O)N[C@@H](CCC(N)=O)C(=O)N[C@@H](CCCNC(=N)N)C(=O)N[C@@H](CC1CCCCC1)C(N)=O)[C@@H](C)O` [Compound 26] (2Naphthoyl-RH[Cha][Cha]NL[Aib]TRQR[Cha]-NH2) came in with an EC50 of 6 nM. On human Y2R [2], inhibition was half-maximal at 26 nM (IC50).

In the case of `CC[C@H](C)[C@H](NC(=O)[C@H](CC1CCCCC1)NC(=O)[C@H](Cc1c[nH]cn1)NC(=O)[C@H](CCCNC(=N)N)NC(=O)c1ccccc1)C(=O)N[C@@H](CC(N)=O)C(=O)N[C@@H](CC(C)C)C(=O)N[C@@H](CCCCN)C(=O)N[C@H](C(=O)N[C@@H](CCCNC(=N)N)C(=O)N[C@@H](CCC(N)=O)C(=O)N[C@@H](CCCNC(=N)N)C(=O)N[C@@H](CC1CCCCC1)C(N)=O)[C@@H](C)O` [Compound 9] (Bz-RH[Cha]INLKTRQR[Cha]-NH2), the “% food intake inhibition” value with male C57BL/6J mice (bolus ip 1000 nmol/kg) is on record as “–15 ± 7%”. For the same molecule, the EC50 at human Y2R [1] was 0.62 nM. Besides, the “agonist activity, fold increase compared to that of 4” value at human Y2R [1] (relative to compound 4) is listed as “more than 4 fold”. Further, inhibition against human Y2R [2] was half-maximal at 1.6 nM (IC50).

`CC[C@H](C)[C@H](NC(=O)[C@H](CC1CCCCC1)NC(=O)[C@H](Cc1c[nH]cn1)NC(=O)[C@H](CCCNC(=N)N)NC(=O)C1CCCCC1)C(=O)N[C@@H](CC(N)=O)C(=O)N[C@@H](Cc1c[nH]c2ccccc12)C(=O)N[C@H](C(=O)N[C@H](C(=O)N[C@@H](CCCNC(=N)N)C(=O)N[C@@H](CCC(N)=O)C(=O)N[C@@H](CCCNC(=N)N)C(=O)N[C@@H](CC1CCCCC1)C(N)=O)[C@@H](C)O)[C@@H](C)CC` [Compound 13] (Cyclohexanecarbonyl-RH[Cha]INWITRQR[Cha]-NH2): the “% food intake inhibition” value with male C57BL/6J mice (bolus ip 500 nmol/kg) is given as 8 ± 6%. Further, a half-maximal effect on human Y2R [1] (EC50) was put at 1.7 nM. Besides, the midpoint of inhibition against human Y2R [2], the IC50, lay at 6.8 nM.

On to `C[C@@H](O)[C@H](NC(=O)C(C)(C)NC(=O)[C@H](Cc1ccc(F)cc1)NC(=O)[C@H](CC(N)=O)NC(=O)[C@H](CC1CCCCC1)NC(=O)[C@H](CC1CCCCC1)NC(=O)[C@H](Cc1c[nH]cn1)NC(=O)[C@H](CCCNC(=N)N)NC(=O)C1CCCCC1)C(=O)N[C@@H](CCCNC(=N)N)C(=O)N[C@@H](CCC(N)=O)C(=O)N[C@@H](CCCNC(=N)N)C(=O)N[C@@H](CC1CCCCC1)C(N)=O` [Compound 28] (Cyclohexanecarbonyl-RH[Cha][Cha]N[Phe(4-F)][Aib]TRQR[Cha]-NH2), for which the “% food intake inhibition” value with male C57BL/6J mice (bolus ip 500 nmol/kg) was 21 ± 7%. This molecule displayed an EC50 at human Y2R [1] of 7.2 nM. For the same molecule, the IC50 at human Y2R [2] is 31 nM.

On to `C[C@@H](O)[C@H](NC(=O)C(C)(C)NC(=O)[C@H](Cc1c[nH]c2ccccc12)NC(=O)[C@H](CC(N)=O)NC(=O)[C@H](CC1CCCCC1)NC(=O)[C@H](CC1CCCCC1)NC(=O)[C@H](Cc1c[nH]cn1)NC(=O)[C@H](CCCNC(=N)N)NC(=O)C1CCCCC1)C(=O)N[C@@H](CCCNC(=N)N)C(=O)N[C@@H](CCC(N)=O)C(=O)N[C@@H](CCCNC(=N)N)C(=O)N[C@@H](CC1CCCCC1)C(N)=O` [Compound 27] (Cyclohexanecarbonyl-RH[Cha][Cha]NW[Aib]TRQR[Cha]-NH2), for which the “% food intake inhibition” value in the test with male C57BL/6J mice (bolus ip 500 nmol/kg) is recorded as 12 ± 8%. On human Y2R [1], this molecule showed an EC50 of 2.2 nM. Besides, on human Y2R [2], the IC50 came out at 8.9 nM.

Consider `CC[C@H](C)[C@H](NC(=O)[C@H](Cc1c[nH]c2ccccc12)NC(=O)[C@H](CC(N)=O)NC(=O)[C@H](CC1CCCCC1)NC(=O)[C@H](CC1CCCCC1)NC(=O)[C@H](Cc1c[nH]cn1)NC(=O)[C@H](CCCNC(=N)N)NC(=O)C1CCCCC1)C(=O)N[C@H](C(=O)N[C@@H](CCCNC(=N)N)C(=O)N[C@@H](CCC(N)=O)C(=O)N[C@@H](CCCNC(=N)N)C(=O)N[C@@H](CC1CCCCC1)C(N)=O)[C@@H](C)O` [Compound 14] (Cyclohexanecarbonyl-RH[Cha][Cha]NWITRQR[Cha]-NH2), for which, in the test with male C57BL/6J mice (bolus ip 500 nmol/kg), the “% food intake inhibition” value was 23 ± 7%. Further, the response on human Y2R [1] was half-maximal at 11 nM (EC50). This molecule registered an IC50 against human Y2R [2] of 15 nM.

For the molecule `CC(C)C[C@H](NC(=O)[C@H](CC(N)=O)NC(=O)[C@H](CC1CCCCC1)NC(=O)[C@H](CC1CCCCC1)NC(=O)[C@H](Cc1c[nH]cn1)NC(=O)[C@H](CCCNC(=N)N)NC(=O)C1CCCCC1)C(=O)NC(C)(C)C(=O)N[C@H](C(=O)N[C@@H](CCCNC(=N)N)C(=O)N[C@@H](CCC(N)=O)C(=O)N[C@@H](CCCNC(=N)N)C(=O)N[C@@H](CC1CCCCC1)C(N)=O)[C@@H](C)O` [Compound 22] (Cyclohexanecarbonyl-RH[Cha][Cha]NL[Aib]TRQR[Cha]-NH2), the “% food intake inhibition” value in the test with male C57BL/6J mice (bolus ip 500 nmol/kg) was 25 ± 7%. Moreover, it took 4 nM to reach a half-maximal effect on human Y2R [1] (EC50). The same molecule showed an IC50 on human Y2R [2] of 11 nM.

`CC[C@H](C)[C@H](NC(=O)[C@H](CC1CCCCC1)NC(=O)[C@H](Cc1c[nH]cn1)NC(=O)[C@H](CCCNC(=N)N)NC(=O)C1CCCCC1)C(=O)N[C@@H](CC(N)=O)C(=O)N[C@@H](CC(C)C)C(=O)NC(C)(C)C(=O)N[C@H](C(=O)N[C@@H](CCCNC(=N)N)C(=O)N[C@@H](CCC(N)=O)C(=O)N[C@@H](CCCNC(=N)N)C(=O)N[C@@H](CC1CCCCC1)C(N)=O)[C@@H](C)O` [Compound 16] (Cyclohexanecarbonyl-RH[Cha]INL[Aib]TRQR[Cha]-NH2): the “% food intake inhibition” value in the test on male C57BL/6J mice (bolus ip 500 nmol/kg) worked out at 5 ± 13%. Besides, it took 1.6 nM to reach a half-maximal effect on human Y2R [1] (EC50). Further, the IC50 on human Y2R [2] was 4.9 nM.

As to `CC(C)C[C@H](NC(=O)[C@H](CC(N)=O)NC(=O)[C@H](Cc1cccc2ccccc12)NC(=O)[C@H](CC1CCCCC1)NC(=O)[C@H](Cc1c[nH]cn1)NC(=O)[C@H](CCCNC(=N)N)NC(=O)c1ccccc1)C(=O)NC(C)(C)C(=O)N[C@H](C(=O)N[C@@H](CCCNC(=N)N)C(=O)N[C@@H](CCC(N)=O)C(=O)N[C@@H](CCCNC(=N)N)C(=O)N[C@@H](CC1CCCCC1)C(N)=O)[C@@H](C)O` [Compound 19] (Bz-RH[Cha][1Nal]NL[Aib]TRQR[Cha]-NH2), the “% food intake inhibition” value with male C57BL/6J mice (bolus ip 500 nmol/kg) worked out at 41 ± 5%. Further, the EC50 at human Y2R [1] was found to be 2.7 nM. In addition, the 50% inhibitory concentration (IC50) against human Y2R [2] stood at 9.1 nM.

For the molecule `CC(C)C[C@H](NC(=O)[C@H](CC(N)=O)NC(=O)[C@H](CC1CCCCC1)NC(=O)[C@H](CC1CCCCC1)NC(=O)[C@H](Cc1c[nH]cn1)NC(=O)[C@H](CCCNC(=N)N)NC(=O)C(C)C)C(=O)NC(C)(C)C(=O)N[C@H](C(=O)N[C@@H](CCCNC(=N)N)C(=O)N[C@@H](CCC(N)=O)C(=O)N[C@@H](CCCNC(=N)N)C(=O)N[C@@H](CC1CCCCC1)C(N)=O)[C@@H](C)O` [Compound 23] (Isobutyryl-RH[Cha][Cha]NL[Aib]TRQR[Cha]-NH2), the “% food intake inhibition” value with male C57BL/6J mice (bolus ip 250 nmol/kg) is listed as 14 ± 7%; in the test on male C57BL/6J mice (bolus ip 500 nmol/kg), 20 ± 11%. Moreover, a half-maximal effect on human Y2R [1] (EC50) was put at 1.2 nM. On human Y2R [2], this molecule registered an IC50 of 3.1 nM.

`CC(C)C[C@H](NC(=O)[C@H](CC(N)=O)NC(=O)[C@H](CC1CCCCC1)NC(=O)[C@H](CC1CCCCC1)NC(=O)[C@H](Cc1c[nH]cn1)NC(=O)[C@H](CCCNC(=N)N)NC(=O)c1cccc2ccccc12)C(=O)NC(C)(C)C(=O)N[C@H](C(=O)N[C@@H](CCCNC(=N)N)C(=O)N[C@@H](CCC(N)=O)C(=O)N[C@@H](CCCNC(=N)N)C(=O)N[C@@H](CC1CCCCC1)C(N)=O)[C@@H](C)O` [Compound 25] (1Naphthoyl-RH[Cha][Cha]NL[Aib]TRQR[Cha]-NH2) displayed an EC50 at human Y2R [1] of 5.8 nM. Further, the IC50 at human Y2R [2] is 18 nM.
